Laboratory results reported in patent WO2009115235A1, “Pde inhibitors for the treatment of pulmonary hypertension” (Bayer Schering Pharma AG, priority 2008, dated 2009).

How the values were obtained:
[1] = test system: isolated rat pulmonary vessels; assay: Relaxation of isolated small pulmonary arteries precontracted with norepinephrine (organ bath / vessel myograph); parameters: species or system rat (male Wistar); details: comparison of vardenafil, sildenafil and tadalafil
[2] = test system: conscious Beagle dogs; assay: Measurement of Pulmonary Artery Pressure in conscious telemetric Beagle dogs; type: in vivo, dog (male Beagle); details: for lowering of pulmonary artery pressure (in words): conscious dogs; for reduction of U44096-induced PH (pulmonary artery pressure): conscious Beagle dogs, significant

SMILES: CCCc1nc(C)c2c(=O)[nH]c(-c3cc(S(=O)(=O)N4CCN(CC)CC4)ccc3OCC)nn12 [Vardenafil, vardenafil]
- relaxation of rat pulmonary vessels (ranking of PDE5 inhibitors) [1]: most prominent
- relaxation of rat pulmonary vessels (ranking of PDE5 inhibitors) ([1]; listed as vardenafil): relaxed pulmonary vessels of rat more potently then the PDE5 inhibitors sildenafil and tadalafil
- decrease of pulmonary artery pressure, inhaled vs oral (in words) ([2]; inhalation compared with oral application, conscious dogs with telemetric implant): more potently decreased pulmonary artery pressure then Vardenafil applied orally
- lowering of pulmonary artery pressure (in words) ([2]; inhalation, 30μg/kg, compared with 10-fold higher oral dose): could lower pulmonary artery pressure as significantly as with the 10-fold higher oral dose
- reduction of U44096-induced PH (pulmonary artery pressure) ([2]; inhaled, 30μg/kg nebulized within 10 minutes): 30%
- duration of the decrease of the pulmonary artery pressure ([2]; inhaled, 30μg/kg/10 min, whole observation period 3 hours): ≥ 3 h
- reduction of U44096-induced PH (pulmonary artery pressure) ([2]; oral, 300μg/kg): 30%
- lowering of pulmonary artery pressure (in words) ([2]; oral, 300μg/kg): significantly lowered pulmonary artery pressure
